Source: patent publication US10981926B2 (Janssen Pharmaceutica NV, priority 2016, dated 2021)

Experiments:
Format in all cases: cell-based
[1] = molecular target: T1, F876L mutant Androgen Receptor (AR-F876L) (Homo sapiens (Human), UniProt P10275, F877L); assay: LNCaP-AR-F876L ANT reporter assay (antagonist mode); conditions: for Emax: read-out: LNCaP-AR-F876L ANT MAX % Inh; for IC50: pIC50 = −Log10(IC50 in Molar), read-out: LNCaP-AR-F876L ANT pIC50 (converted)
[2] = molecular target: T2, wild-type Androgen Receptor (AR-wt) (Homo sapiens (Human), UniProt P10275); assay: LNCaP-AR-wt AG reporter assay (agonist mode); conditions: for Emax: read-out: LNCaP-AR-wt AG MAX % Stim; for EC50: pEC50 = −Log10(EC50 in Molar), read-out: LNCaP-AR-wt AG pEC50 (converted)
[3] = molecular target: T2, wild-type Androgen Receptor (AR-wt); assay: LNCaP-AR-wt ANT reporter assay (antagonist mode); conditions: for Emax: read-out: LNCaP-AR-wt ANT MAX % Inh; for IC50: pIC50 = −Log10(IC50 in Molar), read-out: LNCaP-AR-wt ANT pIC50 (converted)
[4] = molecular target: T1, F876L mutant Androgen Receptor (AR-F876L); assay: LNCaP-AR-F876L AG reporter assay (agonist mode); conditions: for Emax: read-out: LNCaP-AR-F876L AG MAX % Stim; for EC50: pEC50 = −Log10(EC50 in Molar), read-out: LNCaP-AR-F876L AG pEC50 (converted)
[5] = antagonist mode, maximum % inhibition of R1881 control response over tested concentration range
[6] = agonist mode, maximum % stimulation over tested concentration range
[7] = maximum % inhibition of R1881 control response over the tested concentration range
[8] = maximum % stimulation (agonist response) over the tested concentration range

T2 sequence (P10275 whole entry): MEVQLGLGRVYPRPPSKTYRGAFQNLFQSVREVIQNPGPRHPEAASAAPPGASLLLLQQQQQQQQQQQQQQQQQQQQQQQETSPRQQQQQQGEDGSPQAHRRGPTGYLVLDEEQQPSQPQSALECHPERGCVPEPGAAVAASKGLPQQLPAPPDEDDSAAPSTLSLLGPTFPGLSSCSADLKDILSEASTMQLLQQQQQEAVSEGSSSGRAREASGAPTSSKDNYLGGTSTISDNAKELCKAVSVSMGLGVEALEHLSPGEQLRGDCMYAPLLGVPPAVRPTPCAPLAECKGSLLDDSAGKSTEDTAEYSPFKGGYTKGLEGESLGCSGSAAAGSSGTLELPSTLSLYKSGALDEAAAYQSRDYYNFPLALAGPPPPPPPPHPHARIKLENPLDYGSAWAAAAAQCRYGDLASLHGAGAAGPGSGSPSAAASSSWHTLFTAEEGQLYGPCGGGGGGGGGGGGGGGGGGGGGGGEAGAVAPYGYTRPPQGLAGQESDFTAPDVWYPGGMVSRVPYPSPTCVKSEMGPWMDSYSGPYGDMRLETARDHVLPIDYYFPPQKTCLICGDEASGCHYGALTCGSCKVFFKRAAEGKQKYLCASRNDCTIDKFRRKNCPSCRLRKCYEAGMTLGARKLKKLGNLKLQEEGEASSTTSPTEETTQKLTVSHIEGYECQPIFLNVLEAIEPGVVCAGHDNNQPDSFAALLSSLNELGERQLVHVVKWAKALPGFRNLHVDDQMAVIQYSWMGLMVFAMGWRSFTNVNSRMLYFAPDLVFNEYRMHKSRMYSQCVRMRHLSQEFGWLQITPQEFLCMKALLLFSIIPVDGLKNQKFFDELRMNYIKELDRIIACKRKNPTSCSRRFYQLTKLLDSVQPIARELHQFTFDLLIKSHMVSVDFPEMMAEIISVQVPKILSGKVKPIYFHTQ
T1 sequence (P10275 whole entry F877L): as the sequence (P10275 whole entry) above, with F877L counted along it

| Emax [1, 5] | IC50 ([1]; antagonist mode) | Emax [2, 6] | EC50 ([2]; agonist mode) | Emax [3, 5] | IC50 ([3]; antagonist mode) | Emax [4, 6] | EC50 ([4]; agonist mode) | Emax [1, 7] | Emax [2, 8] | Emax [3, 7] | Emax [4, 8] | Compound |
| --- | --- | --- | --- | --- | --- | --- | --- | --- | --- | --- | --- | --- |
| 96.1% | 0.331 µM | 0.2% | > 15.1 µM | 102% | 0.135 µM | 1.5% | > 15.1 µM |  |  |  |  | COc1cc(N2C(=O)C3(CCC3)N(c3ccc4c(cnn4C4CCN(C(C)=O)CC4)c3)C2=S)cnc1C#N [Cpd 212, 5-[8-[1-(1-acetyl-4-piperidyl)indazol-5-yl]-5-oxo-7-thioxo-6,8-diazaspiro[3.4]octan-6-yl]-3-methoxy-pyridine-2-carbonitrile] |
| 100% | 0.562 µM | -0.1% | > 15.1 µM | 102% | 0.891 µM | 0% | > 15.1 µM |  |  |  |  | CN1CCC[C@H](CNC(=O)c2ccc(N3C(=S)N(c4cnc(C#N)c(C(F)(F)F)c4)C(=O)C34CCC4)cc2F)C1 [Cpd 203, 4-[6-[6-cyano-5-(trifluoromethyl)-3-pyridyl]-5-oxo-7-thioxo-6,8-diazaspiro[3.4]octan-8-yl]-2-fluoro-N-[[(3R)-1-methyl-3-piperidyl]methyl]benzamide] |
| 101% | 0.363 µM | 0.5% | > 15.1 µM | 101% | 1.05 µM | 0.1% | > 15.1 µM |  |  |  |  | COc1cc(N2C(=O)C3(CCC3)N(c3ccc4c(cnn4C4CCNCC4)c3)C2=S)cnc1C#N [Cpd 211, 3-methoxy-5-[5-oxo-8-[1-(4-piperidyl)indazol-5-yl]-7-thioxo-6,8-diazaspiro[3.4]octan-6-yl]pyridine-2-carbonitrile] |
| 101% | 0.214 µM | -0.3% | > 15.1 µM | 101% | 0.355 µM | 0% | > 15.1 µM |  |  |  |  | CN1CCC(CNC(=O)c2ccc(N3C(=S)N(c4cnc(C#N)c(C(F)(F)F)c4)C(=O)C34CCC4)cc2F)CC1 [Cpd 201, 4-[6-[6-cyano-5-(trifluoromethyl)-3-pyridyl]-5-oxo-7-thioxo-6,8-diazaspiro[3.4]octan-8-yl]-2-fluoro-N-[(1-methyl-4-piperidyl)methyl]benzamide] |
| 100% | 0.417 µM | -0.2% | > 15.1 µM | 102% | 0.513 µM | 0.1% | > 15.1 µM |  |  |  |  | N#Cc1ncc(N2C(=O)C3(CCC3)N(c3ccc(CN4CCN(CCO)CC4)cc3)C2=S)cc1C(F)(F)F [Cpd 227, 5-[8-[4-[[4-(2-hydroxyethyl)piperazin-1-yl]methyl]phenyl]-5-oxo-7-thioxo-6,8-diazaspiro[3.4]octan-6-yl]-3-(trifluoromethyl)pyridine-2-carbonitrile] |
| 96.8% | 1.35 µM | 0.4% | > 15.1 µM | 95.9% | 4.79 µM | 0.6% | > 15.1 µM |  |  |  |  | CN1CCC(c2nc3cc(N4C(=S)N(c5cnc(C#N)c(C(F)(F)F)c5)C(=O)C45CCC5)ccc3[nH]2)CC1 [Cpd 256, 5-[8-[2-(1-methyl-4-piperidyl)-1H-benzimidazol-5-yl]-5-oxo-7-thioxo-6,8-diazaspiro[3.4]octan-6-yl]-3-(trifluoromethyl)pyridine-2-carbonitrile] |
| 100% | 1.1 µM | 0.1% | > 15.1 µM | 102% | 1.17 µM | 0.1% | > 15.1 µM |  |  |  |  | CN1CCC(C)(Oc2ccc(N3C(=S)N(c4cnc(C#N)c(C(F)(F)F)c4)C(=O)C34CCC4)cn2)CC1 [Cpd 210, 5-[8-[6-[(1,4-dimethyl-4-piperidyl)oxy]-3-pyridyl]-5-oxo-7-thioxo-6,8-diazaspiro[3.4]octan-6-yl]-3-(trifluoromethyl)pyridine-2-carbonitrile] |

More lines, now with the values behind:

| Compound | Emax [1, 5] | IC50 ([1]; antagonist mode) | Emax [2, 6] | EC50 ([2]; agonist mode) | Emax [3, 5] | IC50 ([3]; antagonist mode) | Emax [4, 6] | EC50 ([4]; agonist mode) | Emax [1, 7] | Emax [2, 8] | Emax [3, 7] | Emax [4, 8] |
| --- | --- | --- | --- | --- | --- | --- | --- | --- | --- | --- | --- | --- |
| CN1CCCC(Oc2ccc(N3C(=S)N(c4cnc(C#N)c(C(F)(F)F)c4)C(=O)C34CCC4)cc2)CC1 (stereo not drawn) [Cpd 19, 5-{8-[4-(1-methylazaperhydroepin-4-yloxy)phenyl]-5-oxo-7-thioxo-6,8-diazaspiro[3.4]oct-6-yl}-3-(trifluoromethyl)pyridine-2-carbonitrile] |  | 0.2 µM |  | > 15.1 µM |  | 0.661 µM |  | > 15.1 µM | 101% | 0.3% | 101% | 1.6% |
| N#Cc1ncc(N2C(=O)C3(CCC3)N(c3ccc4c(cnn4CCO)c3)C2=S)cc1Cl [Cpd 163, 3-chloro-5-[8-[1-(2-hydroxyethyl)indazol-5-yl]-5-oxo-7-thioxo-6,8-diazaspiro[3.4]octan-6-yl]pyridine-2-carbonitrile] |  | 0.288 µM |  | > 15.1 µM |  | 0.724 µM |  | > 15.1 µM | 99.3% | 0.4% | 100% | 0.1% |
| N#Cc1ncc(N2C(=O)C3(CCC3)N(c3ccc(OC4CCN(CC(O)CN)CC4)cc3)C2=S)cc1C(F)(F)F (stereo not drawn) [Cpd 157, 5-[8-[4-[[1-(3-amino-2-hydroxy-propyl)-4-piperidyl]oxy]phenyl]-5-oxo-7-thioxo-6,8-diazaspiro[3.4]octan-6-yl]-3-(trifluoromethyl)pyridine-2-carbonitrile] |  | 0.501 µM |  | > 15.1 µM |  | 0.724 µM |  | > 15.1 µM | 99.8% | -0.2% | 102% | 0% |
| N#Cc1ncc(N2C(=O)C3(CCC3)N(C3CCC(NC(=O)c4ccccc4)CC3)C2=S)cc1C(F)(F)F (stereo not drawn) [Cpd 134, N-[4-[6-[6-cyano-5-(trifluoromethyl)-3-pyridyl]-5-oxo-7-thioxo-6,8-diazaspiro[3.4]octan-8-yl]cyclohexyl]benzamide] |  | 0.339 µM |  | > 15.1 µM |  | 0.759 µM |  | > 15.1 µM |  |  |  |  |
| N#Cc1ncc(N2C(=O)C3(CCC3)N(c3ccc4c(cnn4C4CCNCC4)c3)C2=S)cc1Cl [Cpd 182, 3-chloro-5-[5-oxo-8-[1-(4-piperidyl)indazol-5-yl]-7-thioxo-6,8-diazaspiro[3.4]octan-6-yl]pyridine-2-carbonitrile] |  | 0.191 µM |  | > 15.1 µM |  | 0.55 µM |  | > 15.1 µM | 102% | 0% | 103% | 0.1% |
| COCCn1cc2ccc(N3C(=S)N(c4cnc(C#N)c(C(F)(F)F)c4)C(=O)C34CCC4)cc2n1 [Cpd 179, 5-[8-[2-(2-methoxyethyl)indazol-6-yl]-5-oxo-7-thioxo-6,8-diazaspiro[3.4]octan-6-yl]-3-(trifluoromethyl)pyridine-2-carbonitrile] |  | 0.468 µM |  | > 15.1 µM |  | 1.23 µM |  | > 15.1 µM | 101% | -0.2% | 100% | -0.2% |
| C#CCN1CC(Oc2ccc(N3C(=S)N(c4cnc(C#N)c(C(F)(F)F)c4)C(=O)C34CCC4)cc2)C1 [Cpd 117, 5-(8-oxo-5-(4-((1-(prop-2-yn-1-yl)azetidin-3-yl)oxy)phenyl)-6-thioxo-5,7-diazaspiro[3.4]octan-7-yl)-3-(trifluoromethyl)picolinonitrile] |  | 0.112 µM |  | > 15.1 µM |  | 0.0977 µM |  | > 15.1 µM | 99.4% | 0% | 102% | 0.9% |
| CN1CCC(n2cc3ccc(N4C(=S)N(c5cnc(C#N)c(C(F)(F)F)c5)C(=O)C45CCC5)cc3n2)CC1 [Cpd 199, 5-[8-[2-(1-methyl-4-piperidyl)indazol-6-yl]-5-oxo-7-thioxo-6,8-diazaspiro[3.4]octan-6-yl]-3-(trifluoromethyl)pyridine-2-carbonitrile] | 102% | 1.51 µM | -0.2% | > 15.1 µM | 88.9% | 1.62 µM | 0.9% | > 15.1 µM |  |  |  |  |
| N#Cc1ncc(N2C(=O)C3(CCC3)N(c3ccc(OC4CCS(=O)(=O)CC4)cc3)C2=S)cc1C(F)(F)F [Cpd 13, 5-{8-[4-(1,1-dioxothian-4-yloxy)phenyl]-5-oxo-7-thioxo-6,8-diazaspiro[3.4]oct-6-yl}-3-(trifluoromethyl)pyridine-2-carbonitrile] |  | 0.363 µM |  | > 15.1 µM |  | 0.537 µM |  | > 15.1 µM | 98.1% | 0.5% | 101% | 1% |
| N#Cc1ncc(N2C(=O)C3(CCC3)N(c3ccc(C(=O)NC[C@@H]4CCCNC4)cc3)C2=S)cc1C(F)(F)F [Cpd 186, 4-[6-[6-cyano-5-(trifluoromethyl)-3-pyridyl]-5-oxo-7-thioxo-6,8-diazaspiro[3.4]octan-8-yl]-N-[[(3R)-3-piperidyl]methyl]benzamide] | 100% | 2.24 µM | 0.1% | > 15.1 µM | 99.8% | 3.16 µM | 0% | > 15.1 µM |  |  |  |  |
